Assay results reported in patent US20170210751A1, “PRMT5 INHIBITORS AND USES THEREOF” (Epizyme, Inc., priority 2014, published 2017).

Legend:
[1] = test system: Symmetric di-Methyl Arginine in Z-138 cells; assay: Z-138 Methylation Assay (In Cell Western for symmetric di-methyl arginine); assay type: cell-based; details: Homo sapiens, 96 hours incubation, symmetric di-methyl arginine normalised to DNA content, read-out: ICW EC50
Summary of the method: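 Z-138 cells were treated with compound for 96 h at 37 °C, then fixed on poly-D-lysine plates. Symmetric di-methyl arginine was detected by In-Cell Western (800 nm) with DRAQ5 DNA normalisation (700 nm). Percent inhibition used DMSO and 3 μM reference-compound controls; IC50 curves came from triplicate wells.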

Z-138 cell line = assay: Z-138 Proliferation Assay (Cell Titer Glo); assay type: cell-based; details: Homo sapiens, 120 h; Z-138 cells, 5 days incubation, ATP (Cell Titer Glo)
Summary of the method: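 Z-138 cells in RPMI with 10% FBS exposed 5 days at 37 °C to nine-point 3-fold dilutions, top 20 μM final, 0.2% DMSO, triplicate. ATP-based CellTiter-Glo luminescence; IC50 from 4-parameter fit of normalized curves.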

Compound	EC50 [1] [nM]	EC50 (Z-138 cell line) [nM]
CC(=O)N1CCC(Nc2cc(C(=O)NC[C@H](O)CN3CCc4cn[nH]c4C3)ncn2)CC1 [Compound 3-51]	> 1000	> 5000
Nc1nc2c(s1)CN(C[C@@H](O)CNC(=O)c1cc(NC3COC3)ncn1)CC2 [Compound 1-23]	> 1000	> 5000
CC(=O)N1CCC(Nc2cc(C(=O)NC[C@H](O)CN3CCc4[nH]cnc4C3)ncn2)CC1 [Compound 3-34, (S)-6-((1-acetylpiperidin-4-yl)amino)-N-(3-(6,7-dihydro-1H-imidazo[4,5-c]pyridin-5(4H)-yl)-2-hydroxypropyl)pyrimidine-4-carboxamide]	> 1000	> 5000
O=C(NC[C@H](O)CN1CCc2ccncc2C1)c1cc(NC2COC2)ncn1 [Compound 2-24]	> 1000	> 5000
CC(=O)N1CCC(Nc2cc(C(=O)NC[C@H](O)CN3CCc4cnccc4C3)ccn2)CC1 [Compound 2-18]	101 to 1000	101 to 1000
Cc1nc2c(o1)CCN(C[C@@H](O)CNC(=O)c1cc(NC3COC3)ncn1)C2 [Compound 4-1, (S)—N-(2-hydroxy-3-(2-methyl-6,7-dihydrooxazolo[4,5-c]pyridin-5(4H)-yl)propyl)-6-(oxetan-3-ylamino)pyrimidine-4-carboxamide]	> 1000	> 5000
CC(=O)N1CCC(Nc2cc(C(=O)NC[C@H](O)CN3CCc4oc(C)nc4C3)ccn2)CC1 [Compound 4-4, (S)-2-((1-acetylpiperidin-4-yl)amino)-N-(2-hydroxy-3-(2-methyl-6,7-dihydrooxazolo[4,5-c]pyridin-5(4H)-yl)propyl)isonicotinamide]	> 1000	> 5000
CC(=O)N1CCC(Nc2cc(C(=O)NC[C@H](O)CN3CCc4sc(C)nc4C3)ccn2)CC1 [Compound 1-33]	> 1000	> 5000
CC(=O)N1CCC(Nc2cc(C(=O)NC[C@H](O)CN3CCc4c(ncn4C)C3)ccn2)CC1 [Compound 3-22, (S)-2-((1-acetylpiperidin-4-yl)amino)-N-(2-hydroxy-3-(1-methyl-6,7-dihydro-1H-imidazo[4,5-c]pyridin-5(4H)-yl)propyl)isonicotinamide]	> 1000	> 5000
CC(=O)N1CC(Nc2cc(C(=O)NC[C@H](O)CN3CCc4oc(C)nc4C3)ncn2)C1 [Compound 4-2, (S)-6-((1-acetylazetidin-3-yl)amino)-N-(2-hydroxy-3-(2-methyl-6,7-dihydrooxazolo[4,5-c]pyridin-5(4H)-yl)propyl)pyrimidine-4-carboxamide]	> 1000	> 5000
O=C(COc1cccc2cccnc12)NCC(O)CN1CCc2nc[nH]c2C1 (centres unmarked) [Compound 3-10, N-(2-hydroxy-3-{3H,4H,5H,6H,7H-imidazo[4,5-c]pyridin-5-yl}propyl)-2-(quinolin-8-yloxy)acetamide]	> 1000	> 5000
CC(=O)N1CCC(Nc2cc(C(=O)NC[C@H](O)CN3CCc4sc(N)nc4C3)ccn2)CC1 [Compound 1-34]	> 1000	> 5000
CC(=O)N1CCC(Nc2cc(C(=O)NC[C@H](O)CN3CCc4nc(N)sc4C3)ncn2)CC1 [Compound 1-38]	> 1000	> 5000
CC(=O)N1CCC(Nc2cc(C(=O)NC[C@H](O)CN3CCc4sc(C)nc4C3)ncn2)CC1 [Compound 1-36]	> 1000	> 5000
CC(=O)N1CCC(Nc2cc(C(=O)NC[C@H](O)CN3CCc4cccnc4C3)ncn2)CC1 [Compound 2-11, (S)-6-((1-acetylpiperidin-4-yl)amino)-N-(3-(5,6-dihydro-1,7-naphthyridin-7(8H)-yl)-2-hydroxypropyl)pyrimidine-4-carboxamide]	101 to 1000	> 5000
Cn1cnc2c1CN(C[C@@H](O)CNC(=O)c1cc(NC3COC3)ncn1)CC2 [Compound 3-26, (S)—N-(2-hydroxy-3-(3-methyl-6,7-dihydro-3H-imidazo[4,5-c]pyridin-5(4H)-yl)propyl)-6-(oxetan-3-ylamino)pyrimidine-4-carboxamide]	> 1000	> 5000
Cc1csc2c1CN(C[C@@H](O)CNC(=O)c1cc(NC3COC3)ncn1)CC2 [Compound 1-11, (S)—N-(2-hydroxy-3-(3-methyl-6,7-dihydrothieno[3,2-c]pyridin-5(4H)-yl)propyl)-6-(oxetan-3-ylamino)pyrimidine-4-carboxamide]	< 100	1000 to 10000
CC(=O)N1CCC(Nc2cc(C(=O)NC[C@H](O)CN3CCc4c(ncn4C)C3)ncn2)CC1 [Compound 3-35, (S)-6-((1-acetylpiperidin-4-yl)amino)-N-(2-hydroxy-3-(1-methyl-6,7-dihydro-1H-imidazo[4,5-c]pyridin-5(4H)-yl)propyl)pyrimidine-4-carboxamide]	> 1000	> 5000
CC(=O)N1CC(Nc2cc(C(=O)NC[C@H](O)CN3CCc4c(ncn4C)C3)ncn2)C1 [Compound 3-45]	> 1000	> 5000
CC(=O)N1CCC(Nc2cc(C(=O)NC[C@H](O)CN3CCc4ncn(C)c4C3)ccn2)CC1 [Compound 3-24, (S)-2-((1-acetylpiperidin-4-yl)amino)-N-(2-hydroxy-3-(3-methyl-6,7-dihydro-3H-imidazo[4,5-c]pyridin-5(4H)-yl)propyl)isonicotinamide]	> 1000	> 5000
O=C(COc1cccc2cccnc12)NCC(O)CN1CCc2ccncc2C1 (centres unmarked) [Compound 2-8, N-[2-hydroxy-3-(1,2,3,4-tetrahydro-2,7-naphthyridin-2-yl)propyl]-2-(quinolin-8-yloxy)acetamide]	> 1000	> 5000
CC(=O)N1CC(Nc2cc(C(=O)NC[C@H](O)CN3CCc4sc(N)nc4C3)ncn2)C1 [Compound 1-28]	> 1000	> 5000
CC(=O)N1CC(Nc2cc(C(=O)NC[C@H](O)CN3CCc4ccncc4C3)ncn2)C1 [Compound 2-22]	> 1000	> 5000
CC(=O)N1CC(Nc2cc(C(=O)NC[C@H](O)CN3CCc4scc(C)c4C3)ncn2)C1 [Compound 1-12, (S)-6-((1-acetylazetidin-3-yl)amino)-N-(2-hydroxy-3-(3-methyl-6,7-dihydrothieno[3,2-c]pyridin-5(4H)-yl)propyl)pyrimidine-4-carboxamide]	< 100	101 to 1000
CC(=O)N1CCC(Nc2cc(C(=O)NC[C@H](O)CN3CCc4sc(N)nc4C3)ncn2)CC1 [Compound 1-37]	> 1000	> 5000
